# The source made the active and inactive calls.
# Experiments:
# [1] = target: Glucose-6-phosphate 1-dehydrogenase (Homo sapiens, UniProt P11413); experiment: human G6PD enzyme inhibitors, dose response, selectivity assay for P. falciparum G6PD inhibitor project, biochemical, fluorescence (AID 504792); type: functional
# [2] = target: T1, Corticotropin-releasing factor receptor 2/Corticotropin-releasing factor-binding protein (Homo sapiens, UniProt P24387+Q13324); experiment: activators of CRF receptor 2 with binding protein – uHTS hits, confirmation (AID 602473); type: functional; settings: read-out: EC50_Mean
# T1 sequence (Q13324 whole entry): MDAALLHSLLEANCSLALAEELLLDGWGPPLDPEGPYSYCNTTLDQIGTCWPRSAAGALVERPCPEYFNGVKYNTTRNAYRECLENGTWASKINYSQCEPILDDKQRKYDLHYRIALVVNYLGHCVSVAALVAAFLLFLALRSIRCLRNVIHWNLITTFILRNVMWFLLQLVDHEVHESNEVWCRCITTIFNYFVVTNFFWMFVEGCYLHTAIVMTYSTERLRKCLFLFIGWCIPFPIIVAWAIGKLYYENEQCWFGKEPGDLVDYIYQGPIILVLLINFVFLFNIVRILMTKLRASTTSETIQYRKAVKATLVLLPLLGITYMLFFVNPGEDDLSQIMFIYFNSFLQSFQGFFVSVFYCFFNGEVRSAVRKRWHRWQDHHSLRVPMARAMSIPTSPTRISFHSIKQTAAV
# T1 sequence (P24387 whole entry): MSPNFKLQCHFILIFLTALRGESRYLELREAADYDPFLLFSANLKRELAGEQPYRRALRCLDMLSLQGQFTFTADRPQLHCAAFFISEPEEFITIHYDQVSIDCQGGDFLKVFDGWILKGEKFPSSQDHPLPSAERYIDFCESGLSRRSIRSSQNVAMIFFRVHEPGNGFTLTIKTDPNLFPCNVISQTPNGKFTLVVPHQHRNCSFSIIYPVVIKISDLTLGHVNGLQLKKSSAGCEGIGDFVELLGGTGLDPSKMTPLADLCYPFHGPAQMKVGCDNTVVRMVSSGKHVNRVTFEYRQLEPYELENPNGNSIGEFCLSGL
# [3] = target: T1, Corticotropin-releasing factor receptor 2/Corticotropin-releasing factor-binding protein; experiment: Dose Response confirmation of uHTS hits for small molecule antagonists of the CRF-binding protein and CRF-R2 receptor complex.; type: functional; settings: read-out: IC50_Mean
# [4] = target: T2, Aminopeptidase N (Plasmodium falciparum FcB1/Columbia, UniProt O96935); experiment: P. falciparum M1AAP inhibitors, biochemical, fluorogenic H-Leu-NHMec substrate, 1536-well (AID 1445); design: species or system Plasmodium falciparum 3D7, 3D7
# T2 sequence (O96935 whole entry): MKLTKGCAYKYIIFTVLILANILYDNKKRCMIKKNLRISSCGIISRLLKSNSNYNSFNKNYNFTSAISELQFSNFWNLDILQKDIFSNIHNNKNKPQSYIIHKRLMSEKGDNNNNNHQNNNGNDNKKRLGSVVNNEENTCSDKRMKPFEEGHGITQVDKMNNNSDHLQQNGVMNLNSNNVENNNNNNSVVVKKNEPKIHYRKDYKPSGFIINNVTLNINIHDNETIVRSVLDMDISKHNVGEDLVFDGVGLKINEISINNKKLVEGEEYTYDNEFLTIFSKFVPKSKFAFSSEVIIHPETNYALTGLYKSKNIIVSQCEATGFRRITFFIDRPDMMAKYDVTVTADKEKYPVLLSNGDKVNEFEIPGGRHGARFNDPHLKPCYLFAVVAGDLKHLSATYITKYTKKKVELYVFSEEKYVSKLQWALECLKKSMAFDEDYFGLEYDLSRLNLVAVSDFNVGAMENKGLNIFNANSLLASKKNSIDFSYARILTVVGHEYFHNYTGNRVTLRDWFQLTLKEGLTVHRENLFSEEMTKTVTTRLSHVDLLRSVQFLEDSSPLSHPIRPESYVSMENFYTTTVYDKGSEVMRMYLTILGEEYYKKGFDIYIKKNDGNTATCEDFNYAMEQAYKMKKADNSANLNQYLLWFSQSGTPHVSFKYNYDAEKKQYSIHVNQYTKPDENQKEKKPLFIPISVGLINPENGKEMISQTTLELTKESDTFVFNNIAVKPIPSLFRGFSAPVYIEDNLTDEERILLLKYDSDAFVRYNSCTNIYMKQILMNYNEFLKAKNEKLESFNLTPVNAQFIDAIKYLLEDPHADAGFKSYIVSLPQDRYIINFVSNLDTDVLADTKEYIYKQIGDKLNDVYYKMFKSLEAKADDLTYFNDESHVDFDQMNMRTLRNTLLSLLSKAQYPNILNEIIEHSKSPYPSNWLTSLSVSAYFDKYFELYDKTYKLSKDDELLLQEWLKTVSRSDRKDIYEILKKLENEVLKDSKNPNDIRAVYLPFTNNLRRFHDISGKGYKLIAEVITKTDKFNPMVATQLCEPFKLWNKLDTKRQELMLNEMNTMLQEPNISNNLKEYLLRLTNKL
# [5] = cytotoxicity in HEK-293T cells, dose response, cytotoxicity control for BCR NF-kB inhibitor project, luminescence, B-cell screen hits (AID 489021); type: functional, cell-based;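 also: HEK-293T cells carrying an NF-kB luciferase reporter; cells exposed to compound for about 14 hours before viability readout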
# [6] = cytotoxicity toward NIH3T3 fibroblasts, dose response, counter-screen, cell-based, ATP luminescence, mouse fibroblasts (AID 2010); type: functional;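 also: cells exposed to compound for about 90 hours before reading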
# [7] = inhibitors of intracellular T. cruzi replication, confirmation, NIH3T3 host cells, beta-gal luminescence (AID 2044); type: functional, cell-based;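 also: intracellular parasites grown in NIH/3T3 mouse fibroblasts as host cells; luminescent beta-galactosidase reporter signal from transgenic T. cruzi replicating inside host cells; inhibitors lower the luminescence signal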
# [8] = system: Vero; experiment: cells; type: functional; settings: Chlorocebus sabaeus
# [9] = cells; type: functional
# [10] = target: T3, Protein RecA (Mycobacterium tuberculosis, UniProt P9WHJ3); experiment: Fluorescence Cell-Free Homogeneous Dose Retest to Identify Inhibitors of RecA-Intein Splicing Activity. [Related pubchem assays (depositor defined):AID2097, AID2223, AID489010, AID492950]; type: functional
# T3 sequence (P9WHJ3 whole entry): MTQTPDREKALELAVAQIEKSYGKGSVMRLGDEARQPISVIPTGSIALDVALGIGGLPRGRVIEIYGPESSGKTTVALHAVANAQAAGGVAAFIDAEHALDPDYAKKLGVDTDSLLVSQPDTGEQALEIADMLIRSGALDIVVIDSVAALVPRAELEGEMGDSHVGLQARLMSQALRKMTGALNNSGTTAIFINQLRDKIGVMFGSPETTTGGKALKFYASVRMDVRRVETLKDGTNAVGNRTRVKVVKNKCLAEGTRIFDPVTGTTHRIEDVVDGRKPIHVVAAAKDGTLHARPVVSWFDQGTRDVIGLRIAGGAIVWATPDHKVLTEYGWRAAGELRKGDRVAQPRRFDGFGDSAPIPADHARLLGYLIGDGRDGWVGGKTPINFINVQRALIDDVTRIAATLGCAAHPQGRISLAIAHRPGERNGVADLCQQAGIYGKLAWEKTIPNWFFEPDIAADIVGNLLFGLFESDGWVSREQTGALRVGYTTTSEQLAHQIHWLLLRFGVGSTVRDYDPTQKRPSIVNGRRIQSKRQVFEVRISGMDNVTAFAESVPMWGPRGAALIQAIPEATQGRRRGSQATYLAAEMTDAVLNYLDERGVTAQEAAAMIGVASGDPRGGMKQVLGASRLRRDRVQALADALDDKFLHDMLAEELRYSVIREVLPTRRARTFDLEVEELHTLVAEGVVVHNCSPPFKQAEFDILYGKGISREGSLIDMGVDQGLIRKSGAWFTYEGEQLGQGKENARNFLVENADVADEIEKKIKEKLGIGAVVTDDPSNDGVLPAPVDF
# [11] = target: T4, Coagulation factor XII (Homo sapiens, UniProt P00748); type: functional;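 also: activated factor XIIa alpha cleaving a fluorogenic AMC peptide substrate; inhibitor potency from loss of enzyme activity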
# T4 sequence (P00748 whole entry): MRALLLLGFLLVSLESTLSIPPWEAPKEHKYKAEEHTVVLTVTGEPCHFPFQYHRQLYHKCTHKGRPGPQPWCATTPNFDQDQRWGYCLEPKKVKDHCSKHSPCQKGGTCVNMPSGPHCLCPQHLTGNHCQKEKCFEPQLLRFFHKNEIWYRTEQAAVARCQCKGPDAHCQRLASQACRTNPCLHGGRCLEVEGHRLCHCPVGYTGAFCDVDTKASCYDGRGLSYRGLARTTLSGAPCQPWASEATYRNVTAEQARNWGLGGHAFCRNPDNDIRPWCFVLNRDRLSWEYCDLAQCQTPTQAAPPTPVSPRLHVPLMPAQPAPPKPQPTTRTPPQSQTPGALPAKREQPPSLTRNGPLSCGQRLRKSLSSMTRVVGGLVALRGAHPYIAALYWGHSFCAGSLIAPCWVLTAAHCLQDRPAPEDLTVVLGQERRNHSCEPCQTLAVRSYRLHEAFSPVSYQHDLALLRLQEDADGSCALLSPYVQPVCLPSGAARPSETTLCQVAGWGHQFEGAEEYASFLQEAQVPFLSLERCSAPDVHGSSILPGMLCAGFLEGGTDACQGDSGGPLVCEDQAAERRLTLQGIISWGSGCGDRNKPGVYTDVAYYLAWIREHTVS
# [12] = system: HEK293; experiment: cells; type: functional, cell-based; settings: Homo sapiens
# [13] = system: HEK293; experiment: cells; type: functional, cell-based; settings: Homo sapiens; remark: listed apart in the source
# [14] = system: HEK293; experiment: cells; type: functional, cell-based; settings: Homo sapiens; remark: listed apart in the source
# [15] = system: HEK293; experiment: NOD2 signaling inhibitors in MDP-stimulated cells, cell-based, uHTS, luminescence (AID 2001); type: functional; settings: Homo sapiens
# [16] = target: Nucleotide-binding oligomerization domain-containing protein 2 (Homo sapiens, UniProt Q9HC29); experiment: NOD2 signaling inhibitors, cell-based, luminescence, uHTS, HEK293 (AID 1566); type: functional
# Chain of Nucleotide-binding oligomerization domain-containing protein 2 (Q9HC29 whole entry, the tested form may be a part): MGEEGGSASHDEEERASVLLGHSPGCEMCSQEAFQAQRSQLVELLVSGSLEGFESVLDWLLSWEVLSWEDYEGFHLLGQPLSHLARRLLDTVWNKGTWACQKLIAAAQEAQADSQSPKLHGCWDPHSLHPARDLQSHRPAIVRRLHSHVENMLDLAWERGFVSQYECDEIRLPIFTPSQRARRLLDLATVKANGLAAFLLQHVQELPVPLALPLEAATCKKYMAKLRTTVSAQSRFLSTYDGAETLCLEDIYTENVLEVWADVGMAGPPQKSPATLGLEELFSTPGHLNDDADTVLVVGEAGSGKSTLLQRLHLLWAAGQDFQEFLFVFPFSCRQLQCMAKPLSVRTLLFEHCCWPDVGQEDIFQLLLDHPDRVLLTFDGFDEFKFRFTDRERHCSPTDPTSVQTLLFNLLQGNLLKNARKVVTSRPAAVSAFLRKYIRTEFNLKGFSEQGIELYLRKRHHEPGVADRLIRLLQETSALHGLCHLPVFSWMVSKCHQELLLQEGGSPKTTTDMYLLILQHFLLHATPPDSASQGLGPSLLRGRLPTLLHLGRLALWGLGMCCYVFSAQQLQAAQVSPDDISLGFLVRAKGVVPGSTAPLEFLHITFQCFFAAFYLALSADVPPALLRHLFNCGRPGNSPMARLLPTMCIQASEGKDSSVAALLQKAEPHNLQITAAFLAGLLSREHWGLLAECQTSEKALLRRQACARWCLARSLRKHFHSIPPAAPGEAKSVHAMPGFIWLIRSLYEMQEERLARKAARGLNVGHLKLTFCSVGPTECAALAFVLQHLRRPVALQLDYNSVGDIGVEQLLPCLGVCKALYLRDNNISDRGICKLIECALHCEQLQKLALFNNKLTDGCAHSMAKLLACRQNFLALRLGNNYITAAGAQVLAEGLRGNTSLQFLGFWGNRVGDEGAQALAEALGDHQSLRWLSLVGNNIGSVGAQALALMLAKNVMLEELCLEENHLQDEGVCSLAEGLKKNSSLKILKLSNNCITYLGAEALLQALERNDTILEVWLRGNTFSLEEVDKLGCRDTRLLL
# [17] = system: HEK293; experiment: NOD1 signaling inhibitors, primary screen, cell-based, luminescence, uHTS (AID 1578); type: functional; settings: Homo sapiens
# [18] = target: DNA dC->dU-editing enzyme APOBEC-3G (Homo sapiens, UniProt Q9HC16); experiment: Dose Response confirmation of small molecule APOBEC3G DNA Deaminase Inhibitors via a fluorescence-based single-stranded DNA deaminase assay. [Related pubchem assays (depositor defined):AID493012, AID493028]; type: functional
# Chain of DNA dC->dU-editing enzyme APOBEC-3G (Q9HC16 whole entry): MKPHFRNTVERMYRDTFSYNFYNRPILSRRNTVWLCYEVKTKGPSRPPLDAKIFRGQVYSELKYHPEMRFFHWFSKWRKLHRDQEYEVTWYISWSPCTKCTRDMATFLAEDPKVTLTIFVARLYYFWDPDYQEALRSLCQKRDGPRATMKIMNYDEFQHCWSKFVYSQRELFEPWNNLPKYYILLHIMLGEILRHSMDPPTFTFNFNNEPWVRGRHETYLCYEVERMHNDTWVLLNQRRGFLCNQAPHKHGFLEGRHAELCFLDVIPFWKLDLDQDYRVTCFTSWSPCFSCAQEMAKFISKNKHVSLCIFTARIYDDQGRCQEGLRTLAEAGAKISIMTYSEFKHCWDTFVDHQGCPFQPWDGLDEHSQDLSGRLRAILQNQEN
# [19] = Shn3 3'UTR reporter inhibitors, dose response, cell-based, Clone20 osteoblasts, firefly luciferase, cherry-picked (AID 624132); type: functional;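 also: firefly luciferase luminescence from reporter carrying the Shn3 3'UTR in osteoblasts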
# [20] = growth suppression of beta-catenin-knockout colon cells, dose response, cell-based, HCT116, human colon tumor (AID 1045); type: functional;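 also: HCT116 colon tumor cells with beta catenin knocked out; cells exposed to compound for 60 hours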
# [21] = growth suppression of PTEN-null colon cells, dose response, cell-based, HCT116 PTEN knockout (AID 1047); type: functional;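 also: HCT116 colon tumor cells with PTEN knocked out; cells exposed to compound for 60 hours before readout; potency for loss of cell viability measured by luminescence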
# [22] = system: H9c2; experiment: cells; type: functional, cell-based; settings: Rattus norvegicus, H9c2, Myocardium;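 also: confirmatory concentration-response retest of ultra-high-throughput screening hits for modulation of myocardial damage; cell death induced by hydrogen peroxide oxidative stress; compound pretreatment for 60 min then peroxide exposure for 2 h; potency is for protecting the cells against peroxide damage rather than for killing them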
# Chain of Glucose-6-phosphate 1-dehydrogenase (P11413 whole entry): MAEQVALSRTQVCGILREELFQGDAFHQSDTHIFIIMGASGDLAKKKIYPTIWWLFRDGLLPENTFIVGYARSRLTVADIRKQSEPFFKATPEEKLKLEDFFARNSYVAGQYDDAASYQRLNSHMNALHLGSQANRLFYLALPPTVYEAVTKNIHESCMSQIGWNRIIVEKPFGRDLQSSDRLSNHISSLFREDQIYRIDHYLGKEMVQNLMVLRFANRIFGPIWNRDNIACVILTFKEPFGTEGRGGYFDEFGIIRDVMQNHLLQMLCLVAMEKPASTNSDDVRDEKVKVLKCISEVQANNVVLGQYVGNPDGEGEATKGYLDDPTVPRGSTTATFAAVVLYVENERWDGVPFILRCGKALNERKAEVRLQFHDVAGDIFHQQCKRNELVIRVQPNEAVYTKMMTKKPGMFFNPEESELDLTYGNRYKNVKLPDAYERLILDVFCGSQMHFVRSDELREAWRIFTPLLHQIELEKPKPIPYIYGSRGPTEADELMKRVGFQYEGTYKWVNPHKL
smiles,measurement,setting,value
O=C(Nc1nnc(S(=O)(=O)N2CCCCC2)s1)c1ccc(Cl)cc1,IC50,[1],> 80 µM (inactive)
same,EC50,[2],> 53 µM (inactive)
same,IC50,[3],> 47.1 µM (inactive)
NS(=O)(=O)c1ccc(CCNC(=O)CCCn2c(SCC(=O)N3CCCC3)nc3ccsc3c2=O)cc1,IC50,[4],97.7 µM (active)
COc1ccc(-c2nsc(SCC(=O)Nc3cc(C)on3)n2)cc1,IC50,[5],> 80 µM (inactive)
COc1c(Cl)cc(Cl)cc1C(=O)Nc1ccc(CN2CCCCC2)cc1,EC50,[6],> 60 µM (not active)
same,EC50,[7],3 µM (active)
same,CC50,[8],> 25 µM (active)
O=C(Oc1ccc(F)cc1)c1ccc2c(=O)n3c(nc2c1)CCC3,IC50,[9],3.88 µM (active)
COc1c(O)ccc2c1CN1CCc3cc4c(cc3C1C2)OCO4 (centres undefined),IC50,[1],> 80 µM (inactive)
same,EC50,[10],14 µM (active)
COc1cc(C(=O)ON=C2C=C(C)C(=O)C(C)=C2)cc(OC)c1OC,IC50,[9],40.2 µM (active)
same,IC50,[11],0.533 µM (active)
same,IC50,[1],> 80 µM (inactive)
Cc1cc(-c2cc(C(=O)NCc3ccccc3)on2)nc(S(C)(=O)=O)n1,IC50,[5],> 80 µM (inactive)
O=C(Oc1cccc(/C=N/Nc2nc(N3CCOCC3)nc(N3CCOCC3)n2)c1)c1ccco1,IC50,[5],> 80 µM (inactive)
NC(=O)c1ccc(Oc2ccc3ccc(=O)oc3c2)c([N+](=O)[O-])c1,IC50,[4],42.5 µM (active)
COCCn1c(C)cc(C(=O)CSc2ncnc3sc4c(c23)CCC4)c1C,IC50,[12],> 20 µM (inactive)
same,IC50,[13],15 µM (active)
same,IC50,[14],19.4 µM (active)
same,IC50,[15],18.6 µM (inactive)
same,EC50,[16],8.39 µM (active)
same,EC50,[17],10.7 µM (active)
O=C(CNC(=O)c1cccs1)NCC(=O)OCC(=O)c1ccc([N+](=O)[O-])cc1,IC50,[1],> 80 µM (inactive)
COC(=O)CCC(=O)Nc1sc(C)c(C)c1C(N)=O,IC50,[18],38.2 µM (active)
Cn1c(=O)cc(OCCCC(=O)NC2CCCC2)c2ccccc21,IC50,[5],> 80 µM (inactive)
CCOC(=O)c1c(C)[nH]c(C(=O)COC(=O)[C@H](C)N2C(=O)C3CCCCC3C2=O)c1C (some centres undefined),AC50,[19],46.8 µM (active)
O=C1CC(Sc2nc[nH]n2)C(=O)N1c1ccccc1 (centres undefined),IC50,[18],55.7 µM (active)
O=S(=O)(c1ccc(NC(=S)NC23CC4CC(CC(C4)C2)C3)cc1)N1CCCCC1,CC50,[8],8.76 µM (active)
Cc1cccc(NC(=O)COC(=O)CCc2c[nH]c3ccccc23)c1C,IC50,[9],2.82 µM (active)
COc1cccc(OCCOc2ccc(/C=C3/SC(=S)NC3=O)cc2)c1,IC50,[12],> 20 µM (inactive)
same,IC50,[13],6.04 µM (active)
same,IC50,[14],16.5 µM (active)
same,IC50,[15],6.67 µM (inactive)
same,EC50,[16],9.33 µM (active)
same,EC50,[17],4.27 µM (active)
O=C(CCS(=O)(=O)c1ccccc1)Nc1nc2c(s1)COc1ccccc1-2,EC50,[20],14.1 µM (active)
same,CC50,[8],> 25 µM (active)
same,EC50,[21],18.7 µM (active)
COC(=O)c1cc(NC(=O)Nc2cc(OC)ccc2OC)cc(C(=O)OC)c1,IC50,[5],> 80 µM (inactive)
same,IC50,[22],16.3 µM (active)
O=C(CSc1nc2ccsc2c(=O)n1NC(=O)c1ccccc1)Nc1nccs1,IC50,[4],37.4 µM (active)
CCOCCCn1/c(=N/C(=O)c2cccnc2)c(C(=O)OCC)cc2c(=O)n3ccccc3nc21,IC50,[18],41.3 µM (active)
O=C(CNC(=O)c1ccc(Br)cc1)NCC(=O)OCC(=O)c1ccc([N+](=O)[O-])cc1,IC50,[1],> 80 µM (inactive)

# Source: ChEMBL document CHEMBL1201862, “PubChem BioAssay data set” (2004)
